We go through one molecule from US12714696B2, “Low dose fluralaner compositions for protection against parasitic invertebrate pest” (VIRBAC, priority 2019, dated 2026).

One data set relates to R. sanguineus ticks. Briefly: Acaricidal efficacy on dogs, oral 35 μg/kg study. In kind it is in vivo. The following applies: 48 h after the last of four doses of 35 μg/kg per day. Here is the method: The second objective was to investigate the pharmacodynamics between the fluralaner plasmatic dose and the effectiveness against fleas. • IVP: Investigational Veterinary Product, is pure Fluralaner+DMSO (35 μg/kg on Days 0 to 3 (0.35 mL/kg)) • Control product is DMSO (0.35 mL/kg on Days 0 to 3)
On Days 0, 1, 2 and 3, all dogs assigned to group 2 received the Investigational Veterinary Product. On Days 0 to 3 all dogs in group 1 received the control product at a volume equal to the dogs in group 2. Dogs assigned to group 1 received the control product and served as Placebo controls. The quantity of Investigational Veterinary Product and control product administered was calculated according to the dog's individual body weight measured on Day −1.
Dogs were infested with approximately 100 (±8) viable, adult, C. felis fleas on Day −6 for randomisation purposes and on Days 1, 2 and 3 to assess efficacy. Fleas were removed and counted on Days −5, 2, 3 and 4 (24 hours±2 hours after infestation). Dogs were also infested with approximately 50 (±4) viable, adult, unfed R. sanguineus ticks on Day 4 to assess acaricidal efficacy. Ticks will be removed and counted on Day 5 (24 hours±2 hours after infestation).
The efficacy against ticks and fleas were calculated for the study groups at each assessment day according to the formulas given below. […]

Data set [1] can be described thus: Adverse event observation, oral study against fleas. It is filed as in vivo, beagle dogs. As to conditions: oral 35 μg/kg Days 0-3, dogs. Here is the method:
Dogs were observed hourly±15 minutes for four hours after administration on Day 0 and once daily two hours±15 minutes after Investigational Veterinary Product or control product administration on Days 1, 2 and 3. Observations were conducted for each individual dog.

Data set [2] can be described thus: Comparison of plasma concentration simulated from experimental data with literature data. The arrangement: species or system dogs. As to conditions: simulation from experimental data (Table 6).
Data set [3] can be described thus: Pharmacokinetic profile of Bravecto spot-on after single topical administration on dogs. The following applies: dog, in vivo, topical or ocular, 6250 ug/kg, Bravecto spot-on single topical 6250 μg/kg. Here is the method:
The objective of the study is to determine the pharmacokinetic profile of the Bravecto spot-on containing fluralaner after a single topical administration on dogs at a dose rate of 6250 μg/kg after feeding. • IVP: Investigational Veterinary Product, is Bravecto spot-on containing fluralaner at a dose rate of 6250 μg/kg (22.3112 μL/kg) on Day 0
Ten dogs were enrolled in the study of which six were included meeting the inclusion criteria. In addition, veterinary examinations (Day −14 and Day −2±one day), general health observations (all days) and weighing of all dogs (Day −2±one day) were performed.
On Day 0, all dogs will receive the IVP at a dose rate of 6250 μg/kg. The quantity of IVP to be administered will be calculated according to the dog's individual body weight. Dogs will be observed hourly (±15 minutes) for four hours after administration on Day 0.
Blood specimens will be collected from all dogs on Days −14 and −7 for clinical chemistry and hematology for inclusion and for pharmacokinetic analysis prior to IVP treatment on Day 0 and on Days 1 (+24 hours), 3 (+72 hours), 5 (+120 hours), 7 (+168 hours), 10 (+240 hours), 14 (+336 hours), 21 (+504 hours), 28 (+672 hours), 35 (+840 hours), 42 (+1008 hours), 49 (+1176 hours), 56 (+1344 hours) and 60 (+1440 hours).
The PK parameters of fluralaner were calculated using a non-compartmental approach.
The following rules were applied for the calculation of the PK parameters: • All the plasma concentrations, validated by the bioanalytical laboratory, were used for the PK analysis. • The actual blood sampling times were used throughout. • Concentrations below the Limit of Quantification (LOQ) value were considered as zero from time zero (pre-dose) up to the time at which the first quantifiable concentration above the LOQ value was observed. Concentrations below the LOQ value between two quantifiable concentrations were considered as missing. Trailing concentrations below the LOQ value were not used in calculations.
Cmax the observed maximum concentration in plasma measured after dosing.
tmax the time at which Cmax was apparent.
λz the terminal rate constant (λz) was estimated by log-linear regression analysis on data points visually assessed, to be on the terminal log-linear phase. For the slope of the terminal elimination phase to be accepted as reliable, the following criteria were used: • the terminal data points were apparently randomly distributed about a single straight line (on visual inspection), • a minimum of three data points, including the last measured data point and excluding Cmax, were available for the regression.
t1/2 the terminal plasma half-life (t1/2) was calculated according to the following equation: […]
AUC0-t the area under the concentration-time curve from time zero (pre-dose) to the time of last quantifiable concentration (t) was calculated using a linear trapezoidal method.
[AUC0-∞=AUC0-t+(Ct/λz)], where Ct was the observed concentration of drug for the last sample on the PK profile in which the drug was detected, and λz was as defined above.
The extrapolated area under the curve, expressed as a percentage of the total area, AUCinf, was also calculated as: Area Extra (%)=(AUC0-∞−AUC0-t)/AUC0-∞*100%.

What is called half-life is the time needed for the level to fall by half in the phase considered.

Read-outs that look alike come from different tables or passages of the source.

`Cc1cc(C2=NOC(c3cc(Cl)cc(Cl)c3)(C(F)(F)F)C2)ccc1C(=O)NCC(=O)NCC(F)(F)F` (stereo not shown) [fluralaner, Fluralaner] returned an efficacy against ticks in the data set with R. sanguineus ticks of 40.4%. Further, in data set [1], the “Adverse Events as a result of the product” value is reported as “No Adverse Events”. In data set [2], the AUCextra was 68221.98 µg·days/L, the AUClast is 483104.77 µg·days/L, the AUCtot was 551326.76 µg·days/L and the t1/2 was 9.56 days. The molecule also yielded a tmax in data set [2] of 3 days. In addition, the Cmax in data set [2] (compared with literature oral 50.0 mg/kg values) is 31994.2 ng/mL. Besides, the AUC(0-t) in data set [3] (dogs without 86D 6FA, n=5, read-out: fluralaner AUC0-t, Mean) turned out to be 181 µg·h/mL. In data set [3] (dogs without 86D 6FA, n=5, read-out: fluralaner Cmax, Mean), the Cmax was determined as 238 ng/mL. The half-life in data set [3] (dogs without 86D 6FA, n=5, read-out: fluralaner t½ (terminal half-life), Mean (converted)) is 16.2 days. Moreover, in data set [3] (dogs, read-out: maximum concentration (Cmax), range), the Cmax lay within 161 to 353 ng/mL. For the same molecule, the half-life in data set [3] (dogs, read-out: terminal half-life, range) was 14.2 to 20.4 days.
